Measurements as given in ChEMBL document CHEMBL1201862, “PubChem BioAssay data set” (2004).
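Grown in 96-well plates, cells were treated for 48 hours with each compound at five concentrations. Insufficient inhibition: endpoint recorded as highest concentration tested. GI50: concentration for 50% inhibition of growth.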 Activity calls are given as the source filed them. Rule as the data show it: active = GI50 up to about 1.1 µM and inactive = higher.

Columns and labels:
Test in all cases: NCI-60 cell line screen, 48 h
[1] = tested on: 786-0
[2] = tested on: A498
[3] = tested on: CAKI-1
[4] = tested on: EKVX
[5] = tested on: HCT-116
[6] = tested on: HOP-62
[7] = tested on: IGROV-1
[8] = tested on: M14
[9] = tested on: MDA-MB-435
[10] = tested on: NCI-H226
[11] = tested on: OVCAR-5
[12] = tested on: OVCAR-8
[13] = tested on: RPMI-8226
[14] = tested on: SF-295
[15] = tested on: SK-MEL-2
[16] = tested on: SN12C
[17] = tested on: UACC-257
[18] = tested on: UO-31
[19] = tested on: HOP-92
[20] = tested on: SR

Structure (SMILES)	GI50 [1]	GI50 [2]	GI50 [3]	GI50 [4]	GI50 [5]	GI50 [6]	GI50 [7]	GI50 [8]	GI50 [9]	GI50 [10]	GI50 [11]	GI50 [12]	GI50 [13]	GI50 [14]	GI50 [15]	GI50 [16]	GI50 [17]	GI50 [18]	GI50 [19]	GI50 [20]
Cc1n2nc(N)sc2n[n+]1Cc1ccccc1	> 100 µM (inactive)	> 100 µM (inactive)	> 100 µM (inactive)	97.5 µM (inactive)	> 100 µM (inactive)	72.6 µM (inactive)	58.9 µM (inactive)	> 100 µM (inactive)	> 100 µM (inactive)	> 100 µM (inactive)	> 100 µM (inactive)	> 100 µM (inactive)	> 100 µM (inactive)	> 100 µM (inactive)	> 100 µM (inactive)	> 100 µM (inactive)	> 100 µM (inactive)	> 100 µM (inactive)	–	–
CN1C2CCC1C(C(O)c1ccccc1[N+](=O)[O-])C(=O)C2 (stereo not drawn)	44 µM (inactive)	> 100 µM (inactive)	38.4 µM (inactive)	> 100 µM (inactive)	32.3 µM (inactive)	45.3 µM (inactive)	24.9 µM (inactive)	35.2 µM (inactive)	23.6 µM (inactive)	24.2 µM (inactive)	> 100 µM (inactive)	31.6 µM (inactive)	40.8 µM (inactive)	58.1 µM (inactive)	> 100 µM (inactive)	33.7 µM (inactive)	> 100 µM (inactive)	47.1 µM (inactive)	–	–
N=C(CC(=O)NOC(=O)c1ccccc1)NOC(=O)c1ccccc1	> 100 µM (inactive)	31.4 µM (inactive)	36.9 µM (inactive)	30.9 µM (inactive)	38.6 µM (inactive)	44.8 µM (inactive)	14.7 µM (inactive)	> 100 µM (inactive)	36.3 µM (inactive)	12.8 µM (inactive)	59.6 µM (inactive)	27.9 µM (inactive)	74.6 µM (inactive)	18.4 µM (inactive)	–	29.4 µM (inactive)	> 100 µM (inactive)	19.1 µM (inactive)	39.4 µM (inactive)	–
CC(C)N/C(=N\C#N)NS(=O)(=O)c1cnccc1Nc1ccc(Cl)cc1	> 100 µM (inactive)	> 100 µM (inactive)	> 100 µM (inactive)	> 100 µM (inactive)	> 100 µM (inactive)	> 100 µM (inactive)	> 100 µM (inactive)	> 100 µM (inactive)	> 100 µM (inactive)	> 100 µM (inactive)	> 100 µM (inactive)	> 100 µM (inactive)	> 100 µM (inactive)	> 100 µM (inactive)	> 100 µM (inactive)	> 100 µM (inactive)	> 100 µM (inactive)	> 100 µM (inactive)	–	–
C=CC1(c2ccc3ccccc3c2)OCC(CC)(CC)CO1	20.2 µM (inactive)	–	–	–	21.3 µM (inactive)	27.4 µM (inactive)	21.9 µM (inactive)	19.9 µM (inactive)	22.7 µM (inactive)	16.4 µM (inactive)	18.8 µM (inactive)	48.3 µM (inactive)	57.7 µM (inactive)	25.8 µM (inactive)	17.7 µM (inactive)	21.7 µM (inactive)	27.2 µM (inactive)	32.7 µM (inactive)	23.4 µM (inactive)	–
O=C(NCCCNCCCCNCCCNC(=O)C(F)(F)F)C(F)(F)F	> 100 µM (inactive)	> 100 µM (inactive)	20 µM (inactive)	> 100 µM (inactive)	> 100 µM (inactive)	> 100 µM (inactive)	> 100 µM (inactive)	> 100 µM (inactive)	> 100 µM (inactive)	> 100 µM (inactive)	> 100 µM (inactive)	> 100 µM (inactive)	> 100 µM (inactive)	> 100 µM (inactive)	> 100 µM (inactive)	52.6 µM (inactive)	> 100 µM (inactive)	> 100 µM (inactive)	–	–
N#Cc1c(-c2ccc(Cl)cc2)c(C#N)c(=O)n(NS(=O)(=O)c2ccccc2)c1O	29.8 µM (inactive)	24.9 µM (inactive)	21 µM (inactive)	28.1 µM (inactive)	16.2 µM (inactive)	27 µM (inactive)	24.2 µM (inactive)	29.6 µM (inactive)	34.3 µM (inactive)	28.2 µM (inactive)	31 µM (inactive)	28.8 µM (inactive)	6.44 µM (inactive)	30.1 µM (inactive)	19.6 µM (inactive)	13.6 µM (inactive)	27.7 µM (inactive)	–	19.3 µM (inactive)	–
COC1(OC)CC(CO)(COc2cc(Cl)nc(N)n2)C1	> 100 µM (inactive)	–	> 100 µM (inactive)	> 100 µM (inactive)	> 100 µM (inactive)	> 100 µM (inactive)	> 100 µM (inactive)	–	> 100 µM (inactive)	> 100 µM (inactive)	> 100 µM (inactive)	> 100 µM (inactive)	–	> 100 µM (inactive)	> 100 µM (inactive)	> 100 µM (inactive)	> 100 µM (inactive)	> 100 µM (inactive)	> 100 µM (inactive)	–
CCCCCCCCCc1c(O)c(O)c(CCCCCCCCC)c(CCCCCCCCC)c1CCCCCCCCC	> 100 µM (inactive)	> 100 µM (inactive)	> 100 µM (inactive)	> 100 µM (inactive)	> 100 µM (inactive)	> 100 µM (inactive)	> 100 µM (inactive)	> 100 µM (inactive)	47.2 µM (inactive)	> 100 µM (inactive)	> 100 µM (inactive)	> 100 µM (inactive)	> 100 µM (inactive)	> 100 µM (inactive)	> 100 µM (inactive)	> 100 µM (inactive)	> 100 µM (inactive)	–	–	–
CC(C)(C)C(=O)N(C(=S)OCc1ccccn1)c1ccccc1	35.8 µM (inactive)	> 100 µM (inactive)	35.2 µM (inactive)	15.5 µM (inactive)	23.1 µM (inactive)	13.2 µM (inactive)	19.9 µM (inactive)	39.4 µM (inactive)	> 100 µM (inactive)	67.8 µM (inactive)	32.4 µM (inactive)	31.6 µM (inactive)	12.2 µM (inactive)	–	20.6 µM (inactive)	31.3 µM (inactive)	> 100 µM (inactive)	27.8 µM (inactive)	–	–
CCCOc1ccc(/C=C/c2cc(OC)c(OC)c(OC)c2)cc1	0.481 µM (active)	1.08 µM (active)	0.209 µM (active)	6.53 µM (inactive)	0.552 µM (active)	0.265 µM (active)	0.399 µM (active)	0.252 µM (active)	–	0.373 µM (active)	28 µM (inactive)	0.525 µM (active)	0.456 µM (active)	0.185 µM (active)	0.822 µM (active)	0.635 µM (active)	0.348 µM (active)	0.482 µM (active)	0.347 µM (active)	0.548 µM (active)
